Data from PubChem BioAssay AID1963833 (Molecular Pharmacology Branch, DTP, NCI, 2024).

System: 883617-216-R-J1-PDC complex spheroid viability
Experiment: Anticancer human tumor 883617-216-R-J1-PDC patient-derived bladder carcinoma cell line growth inhibition [POLQ]
Details: for IC50: curve of first compound; for viability, T/C: stronger effect = lower value
How it was run: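 Complex spheroid viability model combining PDC tumour cells with endothelial (HUVEC) and MSC stromal cells. Novobiocin, ART-558 or RP6685 were tested singly and in combination with standard and investigational anticancer drugs. Each was titrated in half-log steps from near clinical Cmax, or from 10 microM where Cmax was unknown.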

[1] = second compound 0.0316 µM, first compound 0.0316 µM
[2] = second compound 0.0316 µM, first compound 0.1 µM
[3] = second compound 0.0316 µM, first compound 0.316 µM
[4] = second compound 0.0316 µM, first compound 1 µM
[5] = second compound 0.0316 µM, first compound 3.16 µM
[6] = second compound 0.0316 µM, first compound 10 µM
[7] = second compound 0.1 µM, first compound 0.0316 µM
[8] = second compound 0.1 µM, first compound 0.1 µM
[9] = second compound 0.1 µM, first compound 0.316 µM
[10] = second compound 0.1 µM, first compound 1 µM
[11] = second compound 0.1 µM, first compound 3.16 µM
[12] = second compound 0.1 µM, first compound 10 µM
[13] = second compound 0.316 µM, first compound 0.0316 µM
[14] = second compound 0.316 µM, first compound 0.1 µM
[15] = second compound 0.316 µM, first compound 0.316 µM
[16] = second compound 0.316 µM, first compound 1 µM
[17] = second compound 0.316 µM, first compound 3.16 µM
[18] = second compound 0.316 µM, first compound 10 µM
[19] = second compound 1 µM, first compound 0.0316 µM
[20] = second compound 1 µM, first compound 0.1 µM
[21] = second compound 1 µM, first compound 0.316 µM
[22] = second compound 1 µM, first compound 1 µM
[23] = second compound 1 µM, first compound 3.16 µM
[24] = second compound 1 µM, first compound 10 µM
[25] = second compound 3.16 µM, first compound 0.0316 µM
[26] = second compound 3.16 µM, first compound 0.1 µM
[27] = second compound 3.16 µM, first compound 0.316 µM
[28] = second compound 3.16 µM, first compound 1 µM
[29] = second compound 3.16 µM, first compound 3.16 µM
[30] = second compound 3.16 µM, first compound 10 µM
[31] = second compound 10 µM, first compound 0.0316 µM
[32] = second compound 10 µM, first compound 0.1 µM
[33] = second compound 10 µM, first compound 0.316 µM
[34] = second compound 10 µM, first compound 1 µM
[35] = second compound 10 µM, first compound 3.16 µM
[36] = second compound 10 µM, first compound 10 µM
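Also: spheroids exposed to compounds for seven days before readout.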
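For viability, T/C in this document: 100% = DMSO vehicle control viability.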

Q: Which results are given for `CC1COCCN1c1cc(-c2ccnn2C)c2ccnc(-c3ccn[nH]3)c2n1` (stereo unspecified) + COC1C(OC(N)=O)C(O)C(Oc2ccc3c(O)c(NC(=O)c4ccc(O)c(CC=C(C)C)c4)c(=O)oc3c2C)OC1(C)C?
A: IC50 (second compound 0.0316 µM): 297 nM; IC50 (second compound 0.1 µM): 285 nM; IC50 (second compound 0.316 µM): 124 nM; IC50 (second compound 1 µM): 154 nM; IC50 (second compound 3.16 µM): 156 nM; IC50 (second compound 10 µM): 139 nM; viability, T/C [1]: 89.7%; viability, T/C [2]: 63.8%; viability, T/C [3]: 53.1%; viability, T/C [4]: 37%; viability, T/C [5]: 28.1%; viability, T/C [6]: 30.7%; viability, T/C [7]: 83.2%; viability, T/C [8]: 62.9%; viability, T/C [9]: 49.5%; viability, T/C [10]: 37.7%; viability, T/C [11]: 31.7%; viability, T/C [12]: 27%; viability, T/C [13]: 91.2%; viability, T/C [14]: 51%; viability, T/C [15]: 38.6%; viability, T/C [16]: 40.8%; viability, T/C [17]: 33.1%; viability, T/C [18]: 27.3%; viability, T/C [19]: 82.7%; viability, T/C [20]: 54.3%; viability, T/C [21]: 41.7%; viability, T/C [22]: 32.5%; viability, T/C [23]: 26.5%; viability, T/C [24]: 24.4%; viability, T/C [25]: 86.3%; viability, T/C [26]: 53.3%; viability, T/C [27]: 44%; viability, T/C [28]: 34.8%; viability, T/C [29]: 29.6%; viability, T/C [30]: 29.5%; viability, T/C [31]: 91.1%; viability, T/C [32]: 54.4%; viability, T/C [33]: 39.2%; viability, T/C [34]: 32.2%; viability, T/C [35]: 29.8%; viability, T/C [36]: 32.3%

Q: How did the IC50 (second compound 0.0316 µM) turn out when `CC1COCCN1c1cc(C2(S(C)(=N)=O)CC2)nc(-c2ccnc3[nH]ccc23)n1` (stereo unspecified) + COC1C(OC(N)=O)C(O)C(Oc2ccc3c(O)c(NC(=O)c4ccc(O)c(CC=C(C)C)c4)c(=O)oc3c2C)OC1(C)C was run?
A: 2630 nM

Q: What about the IC50 (second compound 0.1 µM) of the same compound?
A: 2110 nM

Q: And the IC50 (second compound 0.316 µM)?
A: 2530 nM

Q: What about the IC50 (second compound 1 µM) of the same compound?
A: 3630 nM

Q: And the IC50 (second compound 3.16 µM)?
A: 1830 nM

Q: And the IC50 (second compound 10 µM)?
A: 2950 nM

Q: And the viability, T/C [1]?
A: 89%

Q: And the viability, T/C [2]?
A: 101%

Q: And the viability, T/C [3]?
A: 84.5%

Q: And the viability, T/C [4]?
A: 83.5%

Q: And the viability, T/C [5]?
A: 43.5%

Q: What about the viability, T/C [6] of the same compound?
A: 31.2%

Q: And the viability, T/C [7]?
A: 91.1%

Q: What about the viability, T/C [8] of the same compound?
A: 91.5%

Q: And the viability, T/C [9]?
A: 87.3%

Q: And the viability, T/C [10]?
A: 69.1%

Q: What about the viability, T/C [11] of the same compound?
A: 39.1%

Q: What about the viability, T/C [12] of the same compound?
A: 37.1%

Q: And the viability, T/C [13]?
A: 99.4%

Q: And the viability, T/C [14]?
A: 89.6%

Q: What about the viability, T/C [15] of the same compound?
A: 82.7%

Q: What about the viability, T/C [16] of the same compound?
A: 67.8%

Q: What about the viability, T/C [17] of the same compound?
A: 42.7%

Q: And the viability, T/C [18]?
A: 38.7%

Q: What about the viability, T/C [19] of the same compound?
A: 102%

Q: What about the viability, T/C [20] of the same compound?
A: 84.8%

Q: And the viability, T/C [21]?
A: 91.2%

Q: And the viability, T/C [22]?
A: 70.8%

Q: What about the viability, T/C [23] of the same compound?
A: 51.9%

Q: And the viability, T/C [24]?
A: 31.3%

Q: And the viability, T/C [25]?
A: 88.3%

Q: What about the viability, T/C [26] of the same compound?
A: 97.3%

Q: What about the viability, T/C [27] of the same compound?
A: 97.1%

Q: And the viability, T/C [28]?
A: 61.8%

Q: What about the viability, T/C [29] of the same compound?
A: 45.7%

Q: And the viability, T/C [30]?
A: 32.6%

Q: What about the viability, T/C [31] of the same compound?
A: 85.1%

Q: What about the viability, T/C [32] of the same compound?
A: 82.4%

Q: And the viability, T/C [33]?
A: 89.9%

Q: What about the viability, T/C [34] of the same compound?
A: 65%

Q: What about the viability, T/C [35] of the same compound?
A: 52.5%

Q: What about the viability, T/C [36] of the same compound?
A: 40.5%

Q: `CCCS(=O)(=O)Nc1ccc(F)c(C(=O)c2c[nH]c3ncc(-c4ccc(Cl)cc4)cc23)c1F` + COC1C(OC(N)=O)C(O)C(Oc2ccc3c(O)c(NC(=O)c4ccc(O)c(CC=C(C)C)c4)c(=O)oc3c2C)OC1(C)C was tested. Which IC50 (second compound 0.0316 µM) did it give?
A: 8230 nM

Q: What about the IC50 (second compound 0.1 µM) of the same compound?
A: 9580 nM

Q: And the IC50 (second compound 0.316 µM)?
A: > 10000 nM

Q: And the IC50 (second compound 1 µM)?
A: 9070 nM

Q: And the IC50 (second compound 3.16 µM)?
A: > 10000 nM

Q: What about the IC50 (second compound 10 µM) of the same compound?
A: 8990 nM

Q: What about the viability, T/C [1] of the same compound?
A: 90.3%

Q: What about the viability, T/C [2] of the same compound?
A: 103%

Q: And the viability, T/C [3]?
A: 103%

Q: And the viability, T/C [4]?
A: 94.2%

Q: And the viability, T/C [5]?
A: 84.6%

Q: What about the viability, T/C [6] of the same compound?
A: 42.9%

Q: What about the viability, T/C [7] of the same compound?
A: 105%

Q: What about the viability, T/C [8] of the same compound?
A: 119%

Q: And the viability, T/C [9]?
A: 108%

Q: What about the viability, T/C [10] of the same compound?
A: 105%

Q: And the viability, T/C [11]?
A: 76.8%

Q: What about the viability, T/C [12] of the same compound?
A: 49%

Q: What about the viability, T/C [13] of the same compound?
A: 102%

Q: And the viability, T/C [14]?
A: 102%

Q: And the viability, T/C [15]?
A: 102%

Q: And the viability, T/C [16]?
A: 103%

Q: What about the viability, T/C [17] of the same compound?
A: 90%

Q: What about the viability, T/C [18] of the same compound?
A: 50.1%

Q: And the viability, T/C [19]?
A: 103%

Q: What about the viability, T/C [20] of the same compound?
A: 93.9%

Q: What about the viability, T/C [21] of the same compound?
A: 106%

Q: And the viability, T/C [22]?
A: 98.5%

Q: What about the viability, T/C [23] of the same compound?
A: 100%

Q: What about the viability, T/C [24] of the same compound?
A: 45.3%

Q: And the viability, T/C [25]?
A: 94.8%

Q: And the viability, T/C [26]?
A: 88%

Q: What about the viability, T/C [27] of the same compound?
A: 103%

Q: What about the viability, T/C [28] of the same compound?
A: 105%

Q: And the viability, T/C [29]?
A: 96.4%

Q: And the viability, T/C [30]?
A: 56.4%

Q: And the viability, T/C [31]?
A: 106%

Q: And the viability, T/C [32]?
A: 96.7%

Q: What about the viability, T/C [33] of the same compound?
A: 97.3%

Q: What about the viability, T/C [34] of the same compound?
A: 103%

Q: What about the viability, T/C [35] of the same compound?
A: 93.2%

Q: What about the viability, T/C [36] of the same compound?
A: 45.4%
